{
  "source": "ChEMBL document CHEMBL5154862",
  "about": "“Structure-Based Discovery of MDM2/4 Dual Inhibitors that Exert Antitumor Activities against MDM4-Overexpressing Cancer Cells” (J Med Chem, 2022)",
  "key": {"RKO [1]": {"tested_on": "RKO", "test": "Induction of apoptosis in human RKO cells assessed as early apoptotic cells at 25 uM measured after 48 hrs by Annexin V-FITC/PI staining based flow cytometry analysis (reference value: 3.56 %)", "format": "functional"}, "[2]": {"target": "Cellular tumor antigen p53 (Homo sapiens) (UniProt P04637)", "sequence (P04637 whole entry, looked up)": "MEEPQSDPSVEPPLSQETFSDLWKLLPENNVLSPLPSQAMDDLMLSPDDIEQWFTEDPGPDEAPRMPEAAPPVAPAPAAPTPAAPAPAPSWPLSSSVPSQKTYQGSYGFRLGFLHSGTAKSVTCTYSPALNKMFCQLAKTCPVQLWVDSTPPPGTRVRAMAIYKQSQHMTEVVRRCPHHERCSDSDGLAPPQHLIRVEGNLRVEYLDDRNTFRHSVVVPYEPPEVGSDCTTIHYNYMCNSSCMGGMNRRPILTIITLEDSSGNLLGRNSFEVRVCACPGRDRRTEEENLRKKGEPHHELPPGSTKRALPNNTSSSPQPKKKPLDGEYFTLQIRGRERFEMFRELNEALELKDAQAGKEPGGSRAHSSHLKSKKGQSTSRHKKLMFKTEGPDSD", "test": "Activation of p53 pathway in human HCT-116 cells incubated for 24 hrs by Western blot analysis", "format": "cell-based", "settings": "filed as activator, dose 0.078125-2.5 µM, DDE = dose-dependent effect"}, "RKO [3]": {"tested_on": "RKO", "test": "Upregulation of p21 gene expression in human RKO cells at 0.31 uM incubated for 24 hrs by qPCR analysis", "format": "functional, cell-based"}, "HCT-116 [4]": {"tested_on": "HCT-116", "test": "cells", "settings": "Homo sapiens, HCT-116, 96 h"}, "HCT-116 [5]": {"tested_on": "HCT-116", "test": "Upregulation of MDM2 protein expression in human HCT-116 cells at 2.5 uM measured after 24 hrs by Western blot analysis", "format": "functional, cell-based"}, "NCI-H460 [6]": {"tested_on": "NCI-H460", "test": "Upregulation of p21 protein expression in human NCI-H460 cells at 2.5 uM measured after 24 hrs by Western blot analysis", "format": "functional, cell-based"}, "RKO [7]": {"tested_on": "RKO", "test": "Induction of apoptosis in human RKO cells assessed as necrotic cells at 6.25 uM measured after 48 hrs by Annexin V-FITC/PI staining based flow cytometry analysis (reference value: 2.08 %)", "format": "functional"}, "NCI-H460 [8]": {"tested_on": "NCI-H460", "test": "cells", "settings": "Homo sapiens, NCI-H460, 96 h"}, "RKO [9]": {"tested_on": "RKO", "test": "Induction of apoptosis in human RKO cells assessed as early apoptotic cells at 12.5 uM measured after 48 hrs by Annexin V-FITC/PI staining based flow cytometry analysis (reference value: 3.56 %)", "format": "functional"}, "U2OS [10]": {"tested_on": "U2OS", "test": "cells", "settings": "Homo sapiens, 96 h"}, "NCI-H460 [11]": {"tested_on": "NCI-H460", "test": "Upregulation of MDM2 protein expression in human NCI-H460 cells at 2.5 uM measured after 24 hrs by Western blot analysis", "format": "functional, cell-based"}, "Homo sapiens": {"species_on_record": "Homo sapiens", "test": "Potency index, ratio of RG7388 Ki to test compound Ki for displacement of 5-FAM labeled PDI peptide from MDM4 C17S mutant (14 to 111 residues) (unknown origin) expressed in Escherichia coli BL21 (DE3) assessed as inhibition constant incubated for 1.5 hrs by fluorescence polarization competition assay"}, "RKO [12]": {"tested_on": "RKO", "test": "Induction of cell cycle arrest in human RKO cells assessed as effect on cell cycle distribution incubated for 24 hrs by FACSCalibur flow cytometry analysis", "format": "functional, cell-based", "settings": "dose 6.25-25 µM, DDE = dose-dependent effect"}, "RKO [13]": {"tested_on": "RKO", "test": "Induction of apoptosis in human RKO cells assessed as necrotic cells at 25 uM measured after 48 hrs by Annexin V-FITC/PI staining based flow cytometry analysis (reference value: 2.08 %)", "format": "functional"}, "HeLa": {"tested_on": "HeLa", "test": "cells", "settings": "Homo sapiens, 96 h"}, "NCI-H460 [14]": {"tested_on": "NCI-H460", "test": "Upregulation of p53 protein expression in human NCI-H460 cells at 2.5 uM measured after 24 hrs by Western blot analysis", "format": "functional, cell-based"}, "RKO [15]": {"tested_on": "RKO", "test": "Upregulation of p21 expression in human RKO cells incubated for 24 hrs by Western blot analysis", "format": "functional, cell-based", "settings": "dose 0.3125-2.5 µM, DDE = dose-dependent effect"}, "HCT-116 [16]": {"tested_on": "HCT-116", "test": "Induction of PARP cleavage in human HCT-116 cells incubated for 24 hrs by Western blot analysis", "format": "functional, cell-based", "settings": "dose 0.078125-2.5 µM, DDE = dose-dependent effect"}, "RKO [17]": {"tested_on": "RKO", "test": "Induction of apoptosis in human RKO cells assessed as late apoptotic cells at 25 uM measured after 48 hrs by Annexin V-FITC/PI staining based flow cytometry analysis (reference value: 0.82 %)", "format": "functional"}, "HCT-116 [18]": {"tested_on": "HCT-116", "test": "Upregulation of p21 protein expression in human HCT-116 cells at 2.5 uM measured after 24 hrs by Western blot analysis", "format": "functional, cell-based"}, "RKO [19]": {"tested_on": "RKO", "test": "Induction of apoptosis in human RKO cells assessed as late apoptotic cells at 12.5 uM measured after 48 hrs by Annexin V-FITC/PI staining based flow cytometry analysis (reference value: 0.82 %)", "format": "functional"}, "U2OS [20]": {"tested_on": "U2OS", "test": "Effect on MDM4 protein expression in human U2OS cells at 2.5 uM measured after 24 hrs by Western blot analysis", "format": "functional, cell-based"}, "RKO [21]": {"tested_on": "RKO", "test": "Antitumor activity against human RKO cells xenografted in BALB/c mouse assessed as tumor growth inhibition at 50 mg/kg, po qd administered via gavage for 21 consecutive days and measured on day 21 relative to control", "format": "functional", "settings": "504 h, time 21 day, read-out: TGI"}, "U2OS [22]": {"tested_on": "U2OS", "test": "Upregulation of p53 protein expression in human U2OS cells at 2.5 uM measured after 24 hrs by Western blot analysis", "format": "functional, cell-based"}, "RKO [23]": {"tested_on": "RKO", "test": "Downregulation of MDM4 expression in human RKO cells at 0.3125 to 2.5 uM incubated for 24 hrs by Western blot analysis", "format": "functional, cell-based", "settings": "dose 0.3125-2.5 µM"}, "HCT-116 [24]": {"tested_on": "HCT-116", "test": "Upregulation of p53 protein expression in human HCT-116 cells at 2.5 uM measured after 24 hrs by Western blot analysis", "format": "functional, cell-based"}, "[25]": {"target": "E3 ubiquitin-protein ligase Mdm2 (Homo sapiens, UniProt Q00987)", "sequence (Q00987 whole entry, the tested form may be a part)": "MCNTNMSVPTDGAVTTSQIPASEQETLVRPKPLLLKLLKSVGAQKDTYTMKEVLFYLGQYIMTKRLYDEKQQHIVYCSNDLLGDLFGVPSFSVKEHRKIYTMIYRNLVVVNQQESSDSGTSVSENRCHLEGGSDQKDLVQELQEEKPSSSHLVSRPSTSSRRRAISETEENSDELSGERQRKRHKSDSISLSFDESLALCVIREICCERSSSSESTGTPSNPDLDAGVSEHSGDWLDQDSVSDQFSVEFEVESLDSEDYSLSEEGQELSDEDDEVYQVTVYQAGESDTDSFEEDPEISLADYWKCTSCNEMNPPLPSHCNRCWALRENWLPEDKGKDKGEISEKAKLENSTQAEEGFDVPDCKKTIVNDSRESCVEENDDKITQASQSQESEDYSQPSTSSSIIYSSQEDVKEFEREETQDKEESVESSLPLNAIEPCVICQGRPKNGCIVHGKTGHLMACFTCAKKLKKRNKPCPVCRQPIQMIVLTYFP", "test": "Displacement of 5-FAM labeled PDI peptide from MDM2 (1 to 118 residues) (unknown origin) expressed in Escherichia coli BL21 (DE3) assessed as inhibition constant incubated for 1.5 hrs by fluorescence polarization competition assay"}, "MCF7 [26]": {"tested_on": "MCF7", "test": "Upregulation of p53 protein expression in human MCF7 cells at 2.5 uM measured after 24 hrs by Western blot analysis", "format": "functional, cell-based"}, "RKO [27]": {"tested_on": "RKO", "test": "Antitumor activity against human RKO cells xenografted in BALB/c mouse assessed as tumor growth inhibition at 100 mg/kg, po bid administered via gavage for 21 consecutive days and measured on day 21 relative to control", "format": "functional", "settings": "504 h, time 21 day, read-out: TGI"}, "RKO [28]": {"tested_on": "RKO", "test": "cells", "settings": "Homo sapiens, 96 h"}, "U2OS [29]": {"tested_on": "U2OS", "test": "Upregulation of p21 protein expression in human U2OS cells at 2.5 uM measured after 24 hrs by Western blot analysis", "format": "functional, cell-based"}, "RKO [30]": {"tested_on": "RKO", "test": "Upregulation of PUMA gene expression in human RKO cells incubated for 24 hrs by qPCR analysis", "format": "functional, cell-based", "settings": "dose 0.3125-2.5 µM, DDE = dose-dependent effect"}, "RKO [31]": {"tested_on": "RKO", "test": "Upregulation of MDM2 gene expression in human RKO cells at 0.31 uM incubated for 24 hrs by qPCR analysis", "format": "functional, cell-based"}, "[32]": {"test": "AUC in ICR mouse at 15 mg/kg, po measured upto 24 hrs by LC-MS/MS analysis", "format": "ADME, organism-based", "set-up": "time < 24 hrs, dose 15 mg/kg, route po", "settings": "in vivo"}, "RKO [33]": {"tested_on": "RKO", "test": "Induction of apoptosis in human RKO cells assessed as late apoptotic cells at 6.25 uM measured after 48 hrs by Annexin V-FITC/PI staining based flow cytometry analysis (reference value: 0.82 %)", "format": "functional"}, "RKO [34]": {"tested_on": "RKO", "test": "Upregulation of MDM2 expression in human RKO cells incubated for 24 hrs by Western blot analysis", "format": "functional, cell-based", "settings": "dose 0.3125-2.5 µM, DDE = dose-dependent effect"}, "MCF7 [35]": {"tested_on": "MCF7", "test": "Upregulation of p21 protein expression in human MCF7 cells at 2.5 uM measured after 24 hrs by Western blot analysis", "format": "functional, cell-based"}, "RKO [36]": {"tested_on": "RKO", "test": "Induction of PARP cleavage in human RKO cells at 0.3125 to 2.5 uM incubated for 24 hrs by Western blot analysis", "format": "functional, cell-based", "settings": "dose 0.3125-2.5 µM"}, "RKO [37]": {"tested_on": "RKO", "test": "Upregulation of p21 gene expression in human RKO cells incubated for 24 hrs by qPCR analysis", "format": "functional, cell-based", "settings": "dose 0.3125-2.5 µM, DDE = dose-dependent effect"}},
  "note": "Active and inactive are the calls of the source. No cut-off for these calls is given here.",
  "data": [
    {"compound": "COc1cc(C(=O)O)ccc1NC(=O)[C@@H]1N[C@@H](CC(C)(C)C)[C@](CNCc2ccncc2)(c2ccc(Cl)cc2F)[C@H]1c1cccc(Cl)c1F", "values": [
      {"measurement": "Activity", "setting": "RKO [1]", "value": 34.16, "unit": "%"},
      {"measurement": "Activity", "setting": "[2]", "value": "Dde"},
      {"measurement": "Activity", "setting": "RKO [3]", "value": "Active"},
      {"measurement": "IC50", "setting": "HCT-116 [4]", "value": 50.7, "unit": "nM"},
      {"measurement": "Activity", "setting": "HCT-116 [5]", "value": "Active"},
      {"measurement": "Activity", "setting": "NCI-H460 [6]", "value": "Active"},
      {"measurement": "Activity", "setting": "RKO [7]", "value": 16.09, "unit": "%"},
      {"measurement": "IC50", "setting": "NCI-H460 [8]", "value": 460, "unit": "nM"},
      {"measurement": "Activity", "setting": "RKO [9]", "value": 9.54, "unit": "%"},
      {"measurement": "IC50", "setting": "U2OS [10]", "value": 370, "unit": "nM"},
      {"measurement": "Activity", "setting": "NCI-H460 [11]", "value": "Active"},
      {"measurement": "Ratio Ki", "setting": "Homo sapiens", "value": 6},
      {"measurement": "Activity", "setting": "RKO [12]", "value": "Dde"},
      {"measurement": "Activity", "setting": "RKO [13]", "value": 1.31, "unit": "%"},
      {"measurement": "IC50", "setting": "HeLa", "value": 7370, "unit": "nM"},
      {"measurement": "Activity", "setting": "NCI-H460 [14]", "value": "Active"},
      {"measurement": "Activity", "setting": "RKO [15]", "value": "Dde"},
      {"measurement": "Activity", "setting": "HCT-116 [16]", "value": "Dde"},
      {"measurement": "Activity", "setting": "RKO [17]", "value": 57.01, "unit": "%"},
      {"measurement": "Activity", "setting": "HCT-116 [18]", "value": "Active"},
      {"measurement": "Activity", "setting": "RKO [19]", "value": 3.81, "unit": "%"},
      {"measurement": "Activity", "setting": "U2OS [20]", "value": "Active"},
      {"measurement": "inhibition in vivo at 50 mg/kg", "setting": "RKO [21]", "value": 5, "unit": "%"},
      {"measurement": "Activity", "setting": "U2OS [22]", "value": "Active"},
      {"measurement": "Activity", "setting": "RKO [23]", "value": "Active"},
      {"measurement": "Activity", "setting": "HCT-116 [24]", "value": "Active"},
      {"measurement": "Ki", "setting": "[25]", "value": 1.1, "unit": "nM"},
      {"measurement": "Activity", "setting": "MCF7 [26]", "value": "Active"},
      {"measurement": "inhibition in vivo at 100 mg/kg", "setting": "RKO [27]", "value": 18, "unit": "%"},
      {"measurement": "IC50", "setting": "RKO [28]", "value": 200, "unit": "nM"},
      {"measurement": "Activity", "setting": "U2OS [29]", "value": "Active"},
      {"measurement": "Activity", "setting": "RKO [30]", "value": "Dde"},
      {"measurement": "Activity", "setting": "RKO [31]", "value": "Active"},
      {"measurement": "AUC at 24 h", "setting": "[32]", "value": 1990, "unit": "ng·h/mL"},
      {"measurement": "Activity", "setting": "RKO [33]", "value": 3.15, "unit": "%"},
      {"measurement": "Activity", "setting": "RKO [34]", "value": "Dde"},
      {"measurement": "Activity", "setting": "MCF7 [35]", "value": "Active"},
      {"measurement": "Activity", "setting": "RKO [36]", "value": "Active"},
      {"measurement": "Activity", "setting": "RKO [37]", "value": "Dde"}
    ]}
  ]
}
